Assays:
[1] = Hygroscopicity by DVS at 25° C.; format: physicochemical; conditions: cycle of 40-0-95-0-45% relative humidity
[2] = Bulk (accelerated) stability, one week, HPLC and XRPD; conditions: for Bulk (HPLC) Purity: 1 week
Method: Bulk stability: Accelerated stability experiments were conducted at 25° C./92% RH and 40° C./75% RH in an open container, 60° C. in a tight container for one week.
Samples were characterized by XRPD and HPLC and inspected for color change.
Accelerated stability experiments were conducted at 25° C./92% RH in an open container, at 40° C./75% RH in an open container, and at 60° C. in a tight container for one week.

[3] = Polymorph screening by equilibration in solvents; format: physicochemical
[4] = Solubility in buffers, water and simulated vaginal fluid at 37° C.; conditions: for pH of solution at 2 hours: 37° C.
[5] = Hygroscopicity by DVS at 25° C.; format: physicochemical; conditions: for XRPD after DVS test: 25° C.
Method: Hygroscopicity was investigated by DVS at 25° C., using the following method: • Method: 40-0-95-0-40% RH, dm/dt=0.002

[6] = 37 °C, pH 3, aqueous buffer, thermodynamic from solid
[7] = 37 °C, pH 4.2, fassgf or other biorelevant, thermodynamic from solid
[8] = 37 °C, pH 4.5, aqueous buffer, thermodynamic from solid
[9] = 37 °C, pH 6.8, aqueous buffer, thermodynamic from solid
[10] = 37 °C, water, thermodynamic from solid

With CCOC(=O)[C@H](C)N[P@](=O)(COCCn1cnc2c(OC)nc(N)nc21)OCc1ccccc1.O=C(O)/C=C/C(=O)O (single isomer, unassigned) [Compound III] the “Fold increase of retained water content over Compound II” value [1] was 40 fold, the “Stability after exposure to the three conditions” value ([2]; 25° C./92% RH open, 40° C./75% RH open, 60° C. tight container, one week) was “good physical stability” and the “Bulk (HPLC) Purity” value ([2]; BS1: solid state, 25° C./92% RH, open container) was 98.7%. The “Bulk (HPLC) Purity” value ([2]; BS2: solid state, 40° C./75% RH, open container) was 97.2%, the “Bulk (HPLC) Purity” value ([2]; BS3: solid state, 60° C., tight container) was 97.3% and the “HPLC purity, Initial” value ([2]; initial chemical purity before storage) was 98.8%. The “Crystal modification after 1 week equilibration at 25° C.” value (shortened to “Crystal modification”) ([3]; PS1: IPA) was “Compound V Pattern 2”, the “Crystal modification” value ([3]; PS2: Heptanes) was “Compound III Pattern 2” and the “Crystal modification” value ([3]; PS3: Water) was “Compound III Pattern 3”. For the same compound, the “Crystal modification” value ([3]; PS4: ACN) was “Compound III Pattern 4”, the “Crystal modification” value ([3]; PS5: MEK) was “Compound III Pattern 5” and the “Crystal modification” value ([3]; PS7: IPA/heptanes (3/10, v/v)) was “Compound III Pattern 2”. For the same compound, the “Crystal modification” value ([3]; PS8: water/ACN (2.9/97.1, v/v)) was “Compound III Pattern 4”, the “Crystal modification” value ([3]; PS9: IPA/MTBE (1/3, v/v)) was “Compound III Pattern 6” and the “Crystal modification” value ([3]; PS10: EA/toluene (1/3, v/v)) was “Compound III Pattern 2”. The “Dissociation of the salt during equilibration experiments” value ([3]; equilibration in solvents, 1 week, 25° C.) was “dissociation was observed”, the solubility at 0.5 h [4, 6] was over 2000 µg/mL and the solubility at 2 h [4, 6] was over 2000 µg/mL. It also gave a solubility at 0.5 h [4, 7] of over 2000 µg/mL, a solubility at 2 h [4, 7] of over 2000 µg/mL and a solubility at 0.5 h [4, 8] of over 2000 µg/mL. For the same compound, the solubility at 2 h [4, 8] was over 2000 µg/mL, the solubility at 0.5 h [4, 9] was over 2000 µg/mL and the solubility at 2 h [4, 9] was over 2000 µg/mL. It also gave a solubility ([4]; 37 °C, thermodynamic from solid) of over 2000 µg/mL, a solubility at 0.5 h [4, 10] of over 2000 µg/mL and a solubility at 2 h [4, 10] of over 2000 µg/mL. The “pH of solution at 2 hours” value ([4]; ES1: pH 3.0, 100 mM citrate buffer) was 2.83, the “pH of solution at 2 hours” value ([4]; ES2: pH 4.5, 50 mM acetate buffer) was 4.12 and the “pH of solution at 2 hours” value ([4]; ES3: pH 6.8, 50 mM phosphate buffer) was 6.44. For the same compound, the “pH of solution at 2 hours” value ([4]; ES4: Water) was 2.78, the “pH of solution at 2 hours” value ([4]; ES5: Simulated vaginal fluid (pH adjusted by 0.1N NaOH)) was 5.37 and the “Desorp. (%) Cycle 1” value ([5]; DVS 25° C., 0% RH) was 0.00%. For the same compound, the “Desorp. (%) Cycle 2” value ([5]; DVS 25° C., 0% RH) was 0.00%, the “Sorp. (%) Cycle 1” value ([5]; DVS 25° C., 0% RH) was 0.00% and the “Sorp. (%) Cycle 2” value ([5]; DVS 25° C., 0% RH) was 0.00%. The “Desorp. (%) Cycle 1” value ([5]; DVS 25° C., 10% RH) was 0.07%, the “Desorp. (%) Cycle 2” value ([5]; DVS 25° C., 10% RH) was 0.07% and the “Sorp. (%) Cycle 1” value ([5]; DVS 25° C., 10% RH) was 0.07%. The “Sorp. (%) Cycle 2” value ([5]; DVS 25° C., 10% RH) was 0.07%, the “Desorp. (%) Cycle 1” value ([5]; DVS 25° C., 20% RH) was 0.15% and the “Desorp. (%) Cycle 2” value ([5]; DVS 25° C., 20% RH) was 0.15%. For the same compound, the “Sorp. (%) Cycle 1” value ([5]; DVS 25° C., 20% RH) was 0.14%, the “Sorp. (%) Cycle 2” value ([5]; DVS 25° C., 20% RH) was 0.14% and the “Desorp. (%) Cycle 1” value ([5]; DVS 25° C., 30% RH) was 0.23%. For the same compound, the “Desorp. (%) Cycle 2” value ([5]; DVS 25° C., 30% RH) was 0.23%, the “Sorp. (%) Cycle 1” value ([5]; DVS 25° C., 30% RH) was 0.22% and the “Sorp. (%) Cycle 2” value ([5]; DVS 25° C., 30% RH) was 0.22%. The “Desorp. (%) Cycle 1” value ([5]; DVS 25° C., 40% RH) was 0.30%, the “Desorp. (%) Cycle 2” value ([5]; DVS 25° C., 40% RH) was 0.32% and the “Sorp. (%) Cycle 1” value ([5]; DVS 25° C., 40% RH) was 0.29%. For the same compound, the “Sorp. (%) Cycle 2” value ([5]; DVS 25° C., 40% RH) was 0.30%, the “Desorp. (%) Cycle 2” value ([5]; DVS 25° C., 50% RH) was 0.41% and the “Sorp. (%) Cycle 1” value ([5]; DVS 25° C., 50% RH) was 0.39%. The “Desorp. (%) Cycle 2” value ([5]; DVS 25° C., 60% RH) was 0.52%, the “Sorp. (%) Cycle 1” value ([5]; DVS 25° C., 60% RH) was 0.47% and the “Desorp. (%) Cycle 2” value ([5]; DVS 25° C., 70% RH) was 0.67%. For the same compound, the “Sorp. (%) Cycle 1” value ([5]; DVS 25° C., 70% RH) was 0.59%, the “Desorp. (%) Cycle 2” value ([5]; DVS 25° C., 80% RH) was 0.81% and the “Sorp. (%) Cycle 1” value ([5]; DVS 25° C., 80% RH) was 0.71%. For the same compound, the “Desorp. (%) Cycle 2” value ([5]; DVS 25° C., 90% RH) was 0.97%, the “Sorp. (%) Cycle 1” value ([5]; DVS 25° C., 90% RH) was 0.92% and the “Desorp. (%) Cycle 2” value ([5]; DVS 25° C., 95% RH) was 1.01%. The “Sorp. (%) Cycle 1” value ([5]; DVS 25° C., 95% RH) was 1.01%, the Hygroscopicity ([5]; DVS at 25° C., in words) was “slightly hygroscopic” and the “XRPD after DVS test” value ([5]; after DVS 40-0-95-0-40% RH) was “No form change”. The “XRPD after DVS test” value ([5]; after humidity cycle 40-0-95-0-40% RH, listed as Compound III Pattern 2, monofumarate) was “No form change”, the “XRPD after DVS test” value ([5]; after humidity cycle 40-0-95-0-40% RH, monofumarate) was “lose one of the peaks” and the Water uptake ([5]; up to / in 95% RH, DVS 25° C.) was “about 1.0%”.
